Values of other authors, collected in patent US7947677B2, “Spirolactam tricyclic CGRP receptor antagonists” (Merck Sharp & Dohme Corp., priority 2005, dated 2011).
No end group written: not given here.

Experiments:
facial blood flow [1] = settings: marmoset, electrical stimulation of the trigeminal ganglion (Doods et al. 2000)
middle meningeal artery = settings: rats, electrical stimulation of the dura mater, prior administration (Williamson et al. 1997)
facial blood flow [2] = settings: rat, trigeminal ganglion stimulation (Escott et al. 1995)

NCCCC[C@H](NC(=O)[C@@H](Cc1cc(Br)c(O)c(Br)c1)NC(=O)N1CCC(N2Cc3ccccc3NC2=O)CC1)C(=O)N1CCN(c2ccncc2)CC1 [BIBN4096BS]
increase in facial blood flow (facial blood flow [1]): blocked

CGRP(8-37): a fragment of CGRP that lacks seven N-terminal amino acid residues; a peptide CGRP antagonist (VTHRLAGLLSRSGGVVKNNFVPTNVGSKAF; ends and bridges not checked; UniProt P06881 90-119, looked up, fragment)
increase of the diameter of the middle meningeal artery (middle meningeal artery): blocked
increased facial blood flow (facial blood flow [2]): inhibited
